In US20160271139A1, “METHOD FOR NON-TOXIC TREATMENT FOR DRUG WITHDRAWAL” (DEMERX, INC., priority 2013, published 2016):
“Also recorded” adds a separate entry of the source.

How the values were obtained:
[1] = test system: opioid-dependent participants; assay: Safety (QT interval, adverse effects) in opioid-dependent participants; type: in vivo, human
Protocol: (§1) The efficacy of noribogaine in humans was evaluated in opioid-dependent participants in a randomized, placebo-controlled, double-blind trial. In the first cohort, six patients were orally administered a single dose of 60 mg noribogaine, and three patients received placebo. In the second cohort, five patients were orally administered a single dose of 120 mg noribogaine, and three patients received placebo.

[2] = test system: animal models of addiction; settings: cited from earlier work
various animal species = assay: Pre-clinical toxicity studies in various animal species (background); type: in vivo
[3] = test system: healthy, drug-free male volunteers; assay: Cold pressor test in healthy volunteers; type: in vivo, human; settings: single oral 3-60 mg, vs placebo p>0.9 and p=0.17
Protocol: Analgesic effect was assessed based on duration of hand immersion in ice water and on visual analog scale (VAS) pain scores upon hand removal from the water bath.
(§2) Safety and tolerability of noribogaine were tested in the group of volunteers from Example 1. […] Safety evaluations included clinical monitoring, recording of adverse events (AEs), safety laboratory tests, vital signs, ECO telemetry from −2 h to 6 h after dosing, and 12-lead electrocardiograms (ECGs) up to 216 hours post-dosing.

dogs = assay: Single dose acute oral toxicity/TK study in dogs; type: in vivo, dog
[4] = Plasma toxicokinetics in dogs, days 1 and 14; type: in vivo, dog; settings: for T1/2 / Tmax: mean plasma
Protocol: Noribogaine HCl was administered to groups of 4 male and 4 female dogs by single oral gavage daily for 14 days at doses of 0, 0.5, 1.0 and 5.0 mg/kg/day. An additional group of 4 male and 4 female dogs received either the vehicle control or 5.0 mg/kg/day for 14 days and were held for an additional 28 days after cessation of dosing to assess recovery from any potential drug-induced changes. The study was conducted under GLP guidelines and included comprehensive examinations of clinical signs, body weight, clinical pathology parameters, ophthalmologic examinations. ECG recordings and analyses of plasma for bioanalytical measurement of drug levels at appropriate intervals during the study. At the termination of the dosing phase and at the termination of the recovery phase, all dogs were subjected to a complete post-mortem examination including gross examination of major organs and histologic examination of an extensive list of tissues. Additional sections of brain were obtained from cerebrum, cerebellus, brain stem and spinal cord and examined histologically to evaluate potential effects on brain histopathology. In addition, these sections were examined with immunohistochemical stains for GFAP for evidence of gliosis and Calbindin for a more comprehensive examination of cerebellar Purkinje cells.

cynomolgus monkey = assay: Single dose toxicity in cynomolgus monkeys; type: in vivo; settings: oral gavage
Protocol: The objective of the study was to determine the toxicity and toxicokinetic profile of noribogaine following oral (gavage) administration to the cynomolgus monkey. The test article was administered as follows in Table 1:
Parameters monitored on the study included: mortality, clinical signs and body weights. Blood samples were collected for TK evaluation. […] The single dose maximum tolerated dose (MTD) was determined to be greater than 160 mg/kg based on the parameters monitored during the study.

[5] = Human pharmacokinetic study, single oral dose, serum levels (Example 6); type: in vivo; settings: human serum, fasting
Protocol: In double blind studies, fasting healthy volunteers (6 per cohort) were treated once orally with a tablet of noribogaine HCl. In escalating cohorts, the volunteers received 3 mg, 10 mg, 30 mg or 60 mg noribogaine.

[6] = test system: healthy, drug-free male volunteers; assay: Pupillary miosis by pupillometry in healthy volunteers; type: in vivo, human; settings: single oral 3-60 mg, vs placebo p>0.9
Protocol: Pulse oximetry and capnography data were collected continuously using a GE Carescape B650 monitoring system from 2 hours prior to dosing and until six hours after dosing, and thereafter at 12, 24, 48 and 72 hours post-dosing. […] Pupillary miosis was assessed by pupillometry.
Dose-proportionality of AUC and Cmax was assessed using linear regression.

[7] = test system: healthy, drug-free male volunteers; assay: Safety and tolerability in healthy volunteers; type: in vivo, human
Protocol: as §2

[8] = Plasma noribogaine pharmacokinetics in healthy volunteers (Example 7); type: in vivo, human; settings: for AUC0-216 / AUC0-∞ / CL/F / Tmax / t1/2: mean
[9] = test system: opioid-dependent participants; assay: Efficacy in opioid-dependent participants: time to resumption of opioid substitution treatment; type: in vivo, human
Protocol: as §1

[10] = opioid-dependent participants, single oral 60 mg or 120 mg
[11] = female dogs, Gr 2 - 0.5 mg/kg, D1
[12] = female dogs, Gr 2 - 0.5 mg/kg, D14
[13] = female dogs, Gr 3 - 1.0 mg/kg, D1
[14] = female dogs, Gr 3 - 1.0 mg/kg, D14
[15] = female dogs, Gr 4 - 5.0 mg/kg, D1
[16] = female dogs, Gr 4 - 5.0 mg/kg, D14
[17] = single oral dose 30 mg free base
[18] = human plasma, single oral 3 mg (n = 6)
[19] = human plasma, single oral 10 mg (n = 6)
[20] = human plasma, single oral 30 mg (n = 6)
[21] = human plasma, single oral 60 mg (n = 6)

CC[C@H]1C[C@H]2C[C@H]3c4[nH]c5ccc(O)cc5c4CCN(C2)[C@@H]13 [noribogaine]
Mean prolongation of the QT interval ([1]; first cohort, 60 mg noribogaine or placebo): less than 10 ms
Adverse effects [1, 10]: No adverse effects of noribogaine were observed in any of the participants
Hallucinatory effects [1, 10]: no hallucinatory effects
Mean prolongation of the QT interval ([1]; second cohort, 120 mg noribogaine or placebo): less than 40 ms
Efficacy in animal models of addiction ([2]; alcohol, cocaine and opiate dependence): effective in animal models of addiction to alcohol, cocaine and opiate dependence
Psychotomimetic effects ([2]; animal model): had no activity
Drug-seeking behavior ([2]; various animal addiction models): significantly reduced drug-seeking behavior
Toxicity at high doses (various animal species): can cause convulsions and other CNS-related clinical signs, respiratory arrest and death
Analgesic effect (duration of hand immersion, VAS pain scores) [3]: no analgesic effect
NOAEL (dogs): 5 mg/kg
Findings at the NOAEL dose (dogs; 5 mg/kg): only transient reduction in food consumption in one dog
Clinical signs (dogs; 10 mg/kg, beginning 20 minutes after dosing, persisting until 3 h 40 m post-dose): Convulsions and other CNS-related clinical signs
Mortality (dogs; 5 (n=2) or 10 (n=2) mg/kg): no mortality occurred
T1/2 [4, 11]: 1.0 h
Tmax [4, 11]: 0.5 h
T1/2 [4, 12]: 1.1 h
Tmax [4, 12]: 1.0 h
T1/2 [4, 13]: 1.4 h
Tmax [4, 13]: 0.8 h
T1/2 [4, 14]: 1.6 h
Tmax [4, 14]: 0.5 h
T1/2 [4, 15]: 4.3 h
Tmax [4, 15]: 0.6 h
T1/2 [4, 16]: 5.7 h
Tmax [4, 16]: 0.6 h
Plasma level at 24 h post-dosing ([4]; male and female dogs of Group 4 (5.0 mg/kg), Days 1 and 14): significant levels of noribogaine were still detected
Tmax ([4]; male dogs, Gr 2 - 0.5 mg/kg, D1): 0.7 h
Tmax ([4]; male dogs, Gr 2 - 0.5 mg/kg, D14): 0.7 h
Tmax ([4]; male dogs, Gr 3 - 1.0 mg/kg, D1): 0.9 h
Tmax ([4]; male dogs, Gr 3 - 1.0 mg/kg, D14): 0.8 h
Tmax ([4]; male dogs, Gr 4 - 5.0 mg/kg, D1): 0.6 h
Tmax ([4]; male dogs, Gr 4 - 5.0 mg/kg, D14): 0.9 h
Single dose maximum tolerated dose (MTD) (cynomolgus monkey): greater than 160 mg/kg
Mortality or treatment related clinical signs (cynomolgus monkey; doses up to and including 160 mg/kg): No mortality or treatment related clinical signs
time after administration at which mean Cmax was observed ([5]; single oral dose 3 mg free base): 1.9 h
time after administration at which mean Cmax was observed ([5]; single oral dose 10 mg free base): 2.9 h
mean Cmax [5, 17]: 55.0 ng/mL
time after administration at which mean Cmax was observed [5, 17]: 1.75 h
time after administration at which mean Cmax was observed ([5]; single oral dose 60 mg free base): 1.75 h
Pupillary constriction (dark-adapted pupil diameter) [6]: no evidence of pupillary constriction
Number of adverse events reported ([7]; healthy volunteers, 3 mg dose group): five adverse events were reported by two subjects
Number of adverse events reported ([7]; healthy volunteers, 10 mg dose group, single subject): one adverse event
Number of adverse events reported ([7]; healthy volunteers, 30 mg dose group, single subject): one adverse event
Oximetry, capnography, respiratory rate ([7]; healthy volunteers, 3-60 mg): no changes in oximetry or capnography, or changes in respiratory rate
Vital signs or safety laboratory tests ([7]; healthy volunteers, 3-60 mg): no changes in vital signs or safety laboratory tests of note
QTcF values >500 msec ([7]; healthy volunteers, 3-60 mg, at any time): no QTcF values>500 msec at any time
Adverse events, Mild ([7]; healthy volunteers, Dose 3 mg): Dizziness; also recorded: Epistaxis; also recorded: Headache; also recorded: Back pain
Adverse events, Moderate ([7]; healthy volunteers, Dose 3 mg): Headache
Adverse events, Mild ([7]; healthy volunteers, Dose 10 mg): Headache
Adverse events, Mild ([7]; healthy volunteers, Dose 30 mg): Headache
Single increase in QTcF ([7]; one subject dosed with 10 mg, at 24 hours post-dosing): > 60 ms
Dose proportionality of Cmax and AUC ([8]; human plasma, 3-60 mg): increased linearly with dose
Mean half-life estimates ([8]; human plasma, across dose groups): 28 to 50 h
Time of peak concentrations after oral dosing ([8]; human plasma, across dose groups 3-60 mg): 2 to 3 h
AUC0-216 [8, 18]: 72.2 ng·h/mL
AUC0-∞ [8, 18]: 74.2 ng·h/mL
CL/F [8, 18]: 41.4 L/h
Tmax [8, 18]: 1.9 h
t1/2 [8, 18]: 40.9 h
AUC0-216 [8, 19]: 251.4 ng·h/mL
AUC0-∞ [8, 19]: 254.5 ng·h/mL
CL/F [8, 19]: 42.3 L/h
Tmax [8, 19]: 2.9 h
t1/2 [8, 19]: 49.2 h
AUC0-216 [8, 20]: 677.6 ng·h/mL
AUC0-∞ [8, 20]: 700.4 ng·h/mL
CL/F [8, 20]: 46.9 L/h
Tmax [8, 20]: 1.8 h
t1/2 [8, 20]: 27.6 h
AUC0-216 [8, 21]: 1935.4 ng·h/mL
AUC0-∞ [8, 21]: 1962.2 ng·h/mL
CL/F [8, 21]: 34.0 L/h
Tmax [8, 21]: 2.4 h
t1/2 [8, 21]: 29.1 h
Volume of distribution ([8]; human, across dose groups): 1417 to 3086 L
Time to resumption of opioids longer than that reported for untreated patients in a similar study ([9]; first cohort, blinded: 60 mg noribogaine or placebo): ~2 h
Average time to resumption of opioids ([9]; first cohort, blinded: single oral 60 mg noribogaine (6 patients) or placebo (3 patients)): approximately 8.7 hours
Average time to resumption of OST ([9]; second cohort, 120 mg, five presumed noribogaine-treated patients (those with QT prolongation)): approximately 26.8 hours
Average time to resumption of opioids ([9]; second cohort, blinded: single oral 120 mg noribogaine (5 patients) or placebo (3 patients)): approximately 23 hours
